Measurements published in ChEMBL document CHEMBL3526078, “Pharmacokinetics and hepatic uptake of eltrombopag, a novel platelet-increasing agent” (Drug Metab Dispos, 2011).

Target: T1, Organic cation/carnitine transporter 2 (Homo sapiens, UniProt O76082)
T1 sequence (O76082 whole entry): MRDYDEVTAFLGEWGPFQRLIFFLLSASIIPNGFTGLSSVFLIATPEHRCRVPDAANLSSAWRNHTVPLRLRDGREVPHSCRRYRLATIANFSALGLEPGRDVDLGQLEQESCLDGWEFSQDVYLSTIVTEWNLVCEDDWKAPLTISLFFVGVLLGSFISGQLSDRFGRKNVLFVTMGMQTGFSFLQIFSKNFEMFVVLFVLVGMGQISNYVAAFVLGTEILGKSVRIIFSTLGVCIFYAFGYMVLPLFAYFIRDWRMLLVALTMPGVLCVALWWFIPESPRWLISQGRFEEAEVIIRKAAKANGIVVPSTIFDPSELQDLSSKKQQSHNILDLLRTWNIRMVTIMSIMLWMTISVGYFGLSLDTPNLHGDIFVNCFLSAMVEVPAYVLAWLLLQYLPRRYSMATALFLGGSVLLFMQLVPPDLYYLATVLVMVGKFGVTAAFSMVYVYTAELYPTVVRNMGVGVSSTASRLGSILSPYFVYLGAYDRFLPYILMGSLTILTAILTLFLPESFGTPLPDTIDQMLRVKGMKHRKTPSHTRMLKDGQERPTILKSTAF
Test: Inhibition of OCTN2-mediated [14C]carnitine uptake in human OCTN2 expressing HEK293/PDZK1 cells by scintillation counting; call rule not given here
Format: cell-based

inhibition (INH): Active
Compound: C[N+](C)(C)CC(O)CC(=O)[O-] (stereo unspecified) [CARNITINE]
